Measured values from patent US20230381271A1, “PROTOCOL TO MINIMIZE CALCINEURIN INHIBITOR NEPHROTOXICITY” (Aurinia Pharmaceuticals Inc., priority 0001, published 2023).
“Also recorded” adds a separate entry of the source.

How the values were obtained:
LN [1] = assay: 48 week study of LN treatment: voclosporin plus MMF and oral corticosteroids, with pharmacodynamic (eGFR-guided) dosing; assay type: in vivo, human; settings: for Patients with CR at 24 weeks / Patients with CR at 48 weeks / Patients with PR at 24 weeks / Patients with PR at 48 weeks: patients with no dose reduction
Procedure: The study was conducted over a period of 48 weeks and safety was evaluated at 24 weeks.
Subjects were assessed after 24 weeks and 48 weeks as well as a subsequent evaluation at 50 weeks.
PR is a composite end-point that includes safety and efficacy: UPCR reduction of 50% from baseline and no use of rescue medication.
To determine the efficacy of the pharmacodynamics protocol wherein dosage is reduced or stopped according to the presence or absence of indicators of the decrease in eGFR experienced as a side effect, these three groups of patients were assessed after 24 weeks and 48 weeks of treatment in consideration of whether treatment was altered according to the invention protocol.
PR is defined as UPCR reduction of 50% from baseline and no use of rescue medication.

LN [2] = assay: Low dosage protocol: clinical studies similar to Example 1, dosage reduced to 15.8 or 7.9 mg BID; assay type: in vivo, human
[3] = test system: subjects with active lupus nephritis; assay: Double-blind randomized controlled trial in active lupus nephritis: complete renal response; assay type: in vivo, human; settings: at one year
[4] = test system: subjects with lupus nephritis; assay: 24-hour urinary electrolyte excretion concentrations in the lupus nephritis trial; assay type: in vivo, human; settings: for Potassium urinary excretion concentration, change from baseline, mean ± SEM / Sodium urinary excretion concentration, change from baseline, mean ± SEM: baseline to one year, 24-hour urine
From the text: Twenty-four-hour urine samples from 60 patients in each treatment arm were selected for urinary analysis of electrolytes. […] The mean change from baseline to one year in magnesium, potassium and sodium were presented as 24-hour urinary excretion concentrations.

[5] = test system: subjects with biopsy-proven active lupus nephritis; assay: Pooled Phase 2 and Phase 3 lupus nephritis studies: complete renal response rate; assay type: in vivo, human; settings: pooled data
From the text: (§1) All patients were concurrently administered mycophenolate mofetil (MMF) (target 1 g BID) and rapidly-tapered, low-dose steroids.

subjects with LN = assay: Pooled Phase 2 and Phase 3 lupus nephritis studies: fasting lipid profile; assay type: in vivo, human
Procedure: as §1
Fasting total cholesterol, low-density lipoprotein cholesterol (LDL), high-density lipoprotein cholesterol (HDL), and triglycerides were measured at baseline and at a one year follow-up in a central, CLIA-certified laboratory.

[6] = test system: subjects with lupus nephritis; assay: Long-term continuation study: eGFR, UPCR, oral steroid dose; assay type: in vivo, human; settings: for Corrected eGFR, mean / UPCR, mean: N = 116
[7] = test system: subjects with lupus nephritis; assay: Long-term continuation study: adverse events; assay type: in vivo, human
[8] = test system: patients with lupus nephritis; settings: patients treated with voclosporin; cited from earlier work
mouse kidney = assay: MALDI-MSI localization in mouse kidney after IV administration; settings: tail vein injection of parent drug, compared between voclosporin and cyclosporine A species
Procedure: Kidneys were cryosectioned and covered with a matrix for MALDI-MSI analysis. The sample was measured in a raster process in the mass spectrometer, resulting in a spatially resolved mass spectra. The detected molecules were visualized as a color intensity map (m/z 0%-100%). Histological staining of the sample was then performed. Histological staining and the MALDI-MSI measurements of the same sample were co-registered.

[9] = High Dose 39.5 mg BID, 24 weeks, n=88
[10] = High Dose 39.5 mg BID, 48 weeks, n=88
[11] = High Dose 39.5 mg BID, patients with dose reductions (pharmacodynamically dosed)
[12] = Low Dose 23.7 mg BID, 48 weeks, n=89
[13] = Low Dose 23.7 mg BID, patients with dose reductions (pharmacodynamically dosed)
[14] = low dosage 23.7 mg BID + MMF + corticosteroids, whole group
[15] = any subgroup, either treatment arm, one year
[16] = change from baseline to one year

For `C=C/C=C/C[C@@H](C)[C@@H](O)[C@H]1C(=O)N[C@@H](CC)C(=O)N(C)CC(=O)N(C)[C@@H](CC(C)C)C(=O)N[C@@H](C(C)C)C(=O)N(C)[C@@H](CC(C)C)C(=O)N[C@@H](C)C(=O)N[C@H](C)C(=O)N(C)[C@@H](CC(C)C)C(=O)N(C)[C@@H](CC(C)C)C(=O)N(C)[C@@H](C(C)C)C(=O)N1C` [voclosporin], the “Patients with Dose Reduction” value (LN [1]; [9]) was 47 (53.4) n(%), the “Patients with no Dose Reduction” value (LN [1]; [9]) was 41 (46.6) n(%) and the “Patients with Dose Reduction” value (LN [1]; [10]) was 53 (60.2) n(%). For the same compound, the “Patients with no Dose Reduction” value (LN [1]; [10]) was 35 (39.8) n(%), the “Patients with CR at 24 weeks, percent” value (LN [1]; [11]) was “(27.7) %” and the “Patients with CR at 48 weeks, percent” value (LN [1]; [11]) was “(45.3) %”. The “Patients with PR at 24 weeks, number” value (LN [1]; [11]) was 34 n, the “Patients with PR at 24 weeks, percent” value (LN [1]; [11]) was “(72.3) %” and the “Patients with PR at 48 weeks, percent” value (LN [1]; [11]) was “(77.4) %”. For the same compound, the “Patients with CR at 24 weeks” value (LN [1]; High Dose 39.5 mg BID) was 11 (26.8) n(%), the “Patients with CR at 48 weeks” value (LN [1]; High Dose 39.5 mg BID) was 11 (31.4) n(%) and the “Patients with PR at 24 weeks” value (LN [1]; High Dose 39.5 mg BID) was 24 (58.5) n(%). The “Patients with PR at 48 weeks” value (LN [1]; High Dose 39.5 mg BID) was 22 (62.9) n(%), the “Patients with no Dose Reduction” value (LN [1]; Low Dose 23.7 mg BID, 24 weeks, n=89) was 50 (56.2) n(%) and the “Patients with Dose Reduction” value (LN [1]; [12]) was 46 (51.7) n(%). For the same compound, the “Patients with no Dose Reduction” value (LN [1]; [12]) was 43 (48.3) n(%), the “Patients with CR at 24 weeks, percent” value (LN [1]; [13]) was “(35.9) %” and the “Patients with CR at 48 weeks, percent” value (LN [1]; [13]) was “(52.2) %”. The “Patients with PR at 24 weeks, percent” value (LN [1]; [13]) was “(71.8) %”, the “Patients with PR at 48 weeks, number” value (LN [1]; [13]) was 35 n and the “Patients with PR at 48 weeks, percent” value (LN [1]; [13]) was “(76.1) %”. For the same compound, the “Patients with CR at 24 weeks” value (LN [1]; Low Dose 23.7 mg BID) was 15 (30.0) n(%), the “Patients with CR at 48 weeks” value (LN [1]; Low Dose 23.7 mg BID) was 20 (46.5) n(%) and the “Patients with PR at 24 weeks” value (LN [1]; Low Dose 23.7 mg BID) was 34 (68.0) n(%). For the same compound, the “Patients with PR at 48 weeks” value (LN [1]; Low Dose 23.7 mg BID) was 26 (60.5) n(%), the “patients showing CR at 24 weeks” value (LN [1]; [14]) was 32.6% and the “patients showing PR at 24 weeks” value (LN [1]; [14]) was 70%. The “complete or partial remission at reduced dosage” value (LN [2]; dosage lowered to 7.9 mg BID quite early in the treatment) was “Substantial numbers of subjects showed complete or partial remission”, the “remission at reduced dosage” value (LN [2]; dosage reduced almost immediately to 15.8 mg BID) was “a substantial portion of subjects showed substantial remission” and the “complete renal response rate” value ([3]; 23.7 mg twice daily + MMF + low-dose steroids) was 40.8%. The “complete renal response, OR vs MMF and low-dose steroids only” value ([3]; p<0.0001) was 2.65, the “Potassium urinary excretion concentration, change from baseline, mean ± SEM” value ([4]; Non-responders, n = 32) was -2.48 ± 4.806 mmol/L and the “Sodium urinary excretion concentration, change from baseline, mean ± SEM” value ([4]; Non-responders, n = 32) was -23.0 ± 12.69 mmol/L. For the same compound, the “Potassium urinary excretion concentration, change from baseline, mean ± SEM” value ([4]; Responders, n = 28) was -6.38 ± 24.0 mmol/L, the “Sodium urinary excretion concentration, change from baseline, mean ± SEM” value ([4]; Responders, n = 28) was -27.6 ± 109 mmol/L and the “Decrease from baseline in urinary sodium excretion concentration” value ([4]; all subgroups except responders in the control arm, one year) was less than 30.5 mmol/L. For the same compound, the “Mean changes from baseline in urinary magnesium excretion concentration (magnitude)” value [4, 15] was less than 13.4 mg/dL, the “Mean changes from baseline in urinary potassium excretion concentration (magnitude)” value [4, 15] was less than 6.4 mmol/L and the “changes from baseline in urinary electrolyte excretion concentrations of magnesium, potassium, and sodium” value ([4]; at the studied dose, regardless of response to treatment) was “not clinically meaningful”. The “Potassium urinary excretion concentration, change from baseline, mean ± SEM” value ([4]; eGFR decrease cohort, n = 28) was -4.58 ± 4.648 mmol/L, the “Sodium urinary excretion concentration, change from baseline, mean ± SEM” value ([4]; eGFR decrease cohort, n = 28) was -30.5 ± 11.92 mmol/L and the “complete renal response rate (CRR)” value ([5]; one year of treatment, added to MMF and low-dose steroids) was 43.7%. The “complete renal response, OR vs control” value ([5]; one year, P<0.0001) was 2.76, the “HDL cholesterol, Change from Baseline to One Year, mean” value (subjects with LN; 23.7 mg BID arm) was -5.9 mg/dL and the “LDL cholesterol, Change from Baseline to One Year, mean” value (subjects with LN; 23.7 mg BID arm) was -57.4 mg/dL. For the same compound, the “Total cholesterol, Change from Baseline to One Year, mean” value (subjects with LN; 23.7 mg BID arm) was -82.6 mg/dL, the “Triglycerides, Change from Baseline to One Year, mean” value (subjects with LN; 23.7 mg BID arm) was -74.1 mg/dL and the “LDL cholesterol, observed, mean” value (subjects with LN; Baseline, 23.7 mg BID arm, normal range 50 to 130) was 174.0 mg/dL. For the same compound, the “Triglycerides, observed, mean” value (subjects with LN; Baseline, 23.7 mg BID arm, normal range 50 to 150) was 239.6 mg/dL, the “Total cholesterol, observed, mean” value (subjects with LN; Baseline, 23.7 mg BID arm, normal range 100 to 200) was 288.8 mg/dL and the “LDL cholesterol, observed, mean” value (subjects with LN; One Year, 23.7 mg BID arm) was 114.3 mg/dL. For the same compound, the “Total cholesterol, observed, mean” value (subjects with LN; One Year, 23.7 mg BID arm) was 196.6 mg/dL, the “Triglycerides, observed, mean” value (subjects with LN; One Year, 23.7 mg BID arm) was 148.4 mg/dL and the “percentage of subjects with normal triglycerides” value (subjects with LN; at baseline) was 32.3%. For the same compound, the “percentage of subjects with normal triglycerides” value (subjects with LN; at one year) was 56.1%, the “increase in percentage of patients with total cholesterol in the normal range” value (subjects with LN; baseline to one year) was “about 42%” and the “increase in percentage with normal LDL” value (subjects with LN; baseline to one year) was “about 42%”. The “HDL cholesterol, LS Mean Difference Voclosporin vs Control” value (subjects with LN; [16]) was -0.6 mg/dL, the “LDL cholesterol, LS Mean Difference Voclosporin vs Control” value (subjects with LN; [16]) was -10.3 mg/dL and the “Total cholesterol, LS Mean Difference Voclosporin vs Control” value (subjects with LN; [16]) was -15.1 mg/dL. The “Triglycerides, LS Mean Difference Voclosporin vs Control” value (subjects with LN; [16]) was -15.9 mg/dL, the “Mean HDL levels over the study” value (subjects with LN; within the normal range at baseline, both arms) was “remained stable throughout the study” and the “Corrected eGFR, mean” value ([6]; Month 12, 23.7 mg twice daily + MMF + low-dose steroids) was 80.7 mL/min/1.73 m^2. The “UPCR, mean” value ([6]; Month 12) was 0.86 mg/mg, the “mean UPCR versus control” value ([6]; all time points during the three years) was “lower” and the “increase from baseline eGFR, compared to the active control group” value ([6]; at 36 months) was “+2.7 mL/min”. For the same compound, the “mean estimated glomerular filtration rate (eGFR) over time” value ([6]; over 36 months, 116 subjects) was “stable over 36 months”, the “Corrected eGFR, mean” value ([6]; pre-treatment Baseline) was 79.0 mL/min/1.73 m^2 and the “UPCR, mean” value ([6]; pre-treatment Baseline) was 3.941 mg/mg. For the same compound, the withdrawals ([7]; continuation study) was 12.9%, the “deaths in the treated group” value ([7]; continuation study, four deaths in the active control group) was “no deaths” and the “Adverse Event Leading to Voclosporin/Placebo Discontinuation” value ([7]; n = 116) was 10.3%. For the same compound, the “Disease-Related Adverse Event” value ([7]; n = 116) was 51.7%, the “Treatment-Related Adverse Event” value ([7]; n = 116) was 27.6% and the “Treatment-Related Serious Adverse Event” value ([7]; n = 116) was 0.9%. For the same compound, the “Any Adverse Event” value ([7]; n = 116, 23.7 mg twice daily + MMF + low-dose steroids) was 88.8%, the tolerability ([7]; up to three years of treatment) was “well tolerated with no unexpected safety signals observed” and the “Mean serum electrolyte concentrations” value [8] was “within normal ranges”. The “distribution, accumulation and intensity in the kidney (MALDI-MSI)” value (mouse kidney) was “relatively weak throughout the kidney, particularly in the cortex; also recorded: do not accumulate at high concentrations in the kidney”.
